# Source: ChEMBL document CHEMBL2203036, “Discovery of 1-[2-(2,4-dimethylphenylsulfanyl)phenyl]piperazine (Lu AA21004): a novel multimodal compound for the treatment of major depressive disorder” (J Med Chem, 2011)
# Assays:
# [1] = test system: Rattus norvegicus; test: Target occupancy at SERT in Harlan rat at 5 mg/kg, sc administered QD for 3 days relative to vehicle-treated control; format: functional; conditions: route subcutaneous
# [2] = target: 5-hydroxytryptamine receptor 5A (Homo sapiens, UniProt P47898); test: Binding affinity to human 5HT5A receptor
# Chain of 5-hydroxytryptamine receptor 5A (P47898 whole entry): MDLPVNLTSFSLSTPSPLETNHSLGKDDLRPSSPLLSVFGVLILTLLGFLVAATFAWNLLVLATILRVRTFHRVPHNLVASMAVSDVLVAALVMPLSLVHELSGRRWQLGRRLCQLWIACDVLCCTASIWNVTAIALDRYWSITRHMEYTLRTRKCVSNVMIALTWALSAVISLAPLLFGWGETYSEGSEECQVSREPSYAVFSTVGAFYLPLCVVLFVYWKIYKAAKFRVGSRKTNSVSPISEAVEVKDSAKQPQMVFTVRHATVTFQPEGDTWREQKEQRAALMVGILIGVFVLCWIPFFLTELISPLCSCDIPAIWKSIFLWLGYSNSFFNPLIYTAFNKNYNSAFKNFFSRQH
# [3] = target: Beta-2 adrenergic receptor (Homo sapiens, UniProt P07550); test: Binding affinity to human beta 2 adrenergic receptor
# Chain of Beta-2 adrenergic receptor (P07550 whole entry): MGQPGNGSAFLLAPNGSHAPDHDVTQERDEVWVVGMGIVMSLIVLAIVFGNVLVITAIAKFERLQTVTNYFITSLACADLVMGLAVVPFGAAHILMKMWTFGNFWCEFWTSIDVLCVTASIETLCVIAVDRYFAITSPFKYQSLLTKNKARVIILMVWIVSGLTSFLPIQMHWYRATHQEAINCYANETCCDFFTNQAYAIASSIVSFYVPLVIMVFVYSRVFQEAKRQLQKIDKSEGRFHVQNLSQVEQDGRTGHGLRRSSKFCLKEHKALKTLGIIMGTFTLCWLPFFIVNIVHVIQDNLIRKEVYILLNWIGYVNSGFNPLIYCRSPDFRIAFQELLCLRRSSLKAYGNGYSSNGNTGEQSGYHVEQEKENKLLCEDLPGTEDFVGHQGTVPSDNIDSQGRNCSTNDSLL
# [4] = target: Beta-1 adrenergic receptor (Homo sapiens, UniProt P08588); test: Binding affinity to human beta 1 adrenergic receptor
# Chain of Beta-1 adrenergic receptor (P08588 whole entry): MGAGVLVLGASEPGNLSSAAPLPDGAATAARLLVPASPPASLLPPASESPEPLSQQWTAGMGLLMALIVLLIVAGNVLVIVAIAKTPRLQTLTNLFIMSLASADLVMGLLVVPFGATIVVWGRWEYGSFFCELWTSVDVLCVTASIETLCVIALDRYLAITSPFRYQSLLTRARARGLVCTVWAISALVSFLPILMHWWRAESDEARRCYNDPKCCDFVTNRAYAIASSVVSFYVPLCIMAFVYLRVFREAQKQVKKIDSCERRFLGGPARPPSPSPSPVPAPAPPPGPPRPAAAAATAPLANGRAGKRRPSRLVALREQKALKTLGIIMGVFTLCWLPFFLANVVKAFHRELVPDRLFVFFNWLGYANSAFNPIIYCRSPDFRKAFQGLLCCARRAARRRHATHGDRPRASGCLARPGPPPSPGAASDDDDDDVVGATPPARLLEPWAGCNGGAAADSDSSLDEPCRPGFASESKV
# [5] = target: Sodium-dependent serotonin transporter (Homo sapiens, UniProt P31645); test: Binding affinity to human SERT
# Chain of Sodium-dependent serotonin transporter (P31645 whole entry): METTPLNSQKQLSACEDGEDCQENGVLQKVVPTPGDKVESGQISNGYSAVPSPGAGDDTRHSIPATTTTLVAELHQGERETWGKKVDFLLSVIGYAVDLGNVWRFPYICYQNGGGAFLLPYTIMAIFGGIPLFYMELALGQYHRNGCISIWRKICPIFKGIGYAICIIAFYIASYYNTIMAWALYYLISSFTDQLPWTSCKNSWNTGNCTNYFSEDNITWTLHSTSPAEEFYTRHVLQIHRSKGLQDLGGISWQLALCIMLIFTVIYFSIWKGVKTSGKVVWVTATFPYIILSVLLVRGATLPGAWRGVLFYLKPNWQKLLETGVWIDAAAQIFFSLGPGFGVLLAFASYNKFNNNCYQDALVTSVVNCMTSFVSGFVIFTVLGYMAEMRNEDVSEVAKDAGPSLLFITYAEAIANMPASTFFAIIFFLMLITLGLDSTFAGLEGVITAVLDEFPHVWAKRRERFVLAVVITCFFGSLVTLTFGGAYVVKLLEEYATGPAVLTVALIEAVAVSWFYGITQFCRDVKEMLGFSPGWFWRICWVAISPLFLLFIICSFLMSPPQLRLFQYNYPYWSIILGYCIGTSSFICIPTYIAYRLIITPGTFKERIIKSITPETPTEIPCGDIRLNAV
# [6] = Oral bioavailability in rat at 2 mg/kg; format: ADME, organism-based; conditions: in vivo
# [7] = target: Cytochrome P450 2D6 (Homo sapiens, UniProt P10635); test: Inhibition of human recombinant CYP2D6 using 3-[2-(N,N-diethyl-N-methylamino)ethyl]-7-methoxy- 4-methylcoumarin after 45 mins by fluorescence spectrophotometric analysis; format: ADME
# Chain of Cytochrome P450 2D6 (P10635 whole entry): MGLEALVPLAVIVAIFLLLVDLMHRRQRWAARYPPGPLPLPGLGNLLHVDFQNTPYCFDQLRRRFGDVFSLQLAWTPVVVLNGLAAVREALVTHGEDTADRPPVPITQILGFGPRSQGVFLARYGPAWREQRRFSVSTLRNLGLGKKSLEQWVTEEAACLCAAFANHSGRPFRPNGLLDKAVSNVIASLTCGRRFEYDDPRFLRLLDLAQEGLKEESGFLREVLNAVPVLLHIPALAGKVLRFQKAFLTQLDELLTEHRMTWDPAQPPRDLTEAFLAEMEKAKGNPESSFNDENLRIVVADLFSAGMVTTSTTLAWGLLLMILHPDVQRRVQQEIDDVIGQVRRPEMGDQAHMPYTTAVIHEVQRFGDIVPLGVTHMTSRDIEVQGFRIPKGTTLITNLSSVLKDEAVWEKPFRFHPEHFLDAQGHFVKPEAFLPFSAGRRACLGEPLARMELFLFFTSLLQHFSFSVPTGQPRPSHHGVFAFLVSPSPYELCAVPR
# [8] = target: Cytochrome P450 2C9 (Homo sapiens, UniProt P11712); test: Inhibition of human recombinant CYP2C9 using dibenzylfluorescein after 45 mins by fluorescence spectrophotometric analysis; format: ADME
# Chain of Cytochrome P450 2C9 (P11712 whole entry): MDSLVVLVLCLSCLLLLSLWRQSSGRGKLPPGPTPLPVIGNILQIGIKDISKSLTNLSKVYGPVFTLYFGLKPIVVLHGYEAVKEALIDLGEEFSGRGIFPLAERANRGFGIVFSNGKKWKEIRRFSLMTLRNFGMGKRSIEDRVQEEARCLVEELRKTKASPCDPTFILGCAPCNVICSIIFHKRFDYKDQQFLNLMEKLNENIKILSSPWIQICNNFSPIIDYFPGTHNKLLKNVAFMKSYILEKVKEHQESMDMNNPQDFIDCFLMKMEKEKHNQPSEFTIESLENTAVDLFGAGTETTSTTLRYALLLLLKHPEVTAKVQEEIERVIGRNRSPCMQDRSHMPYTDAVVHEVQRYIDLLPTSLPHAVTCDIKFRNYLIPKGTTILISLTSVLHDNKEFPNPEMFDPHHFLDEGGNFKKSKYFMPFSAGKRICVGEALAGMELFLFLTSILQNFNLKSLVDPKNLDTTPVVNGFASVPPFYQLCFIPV
# [9] = target: T1, Cytochrome P450 1A2 (Homo sapiens, UniProt P05177); test: Inhibition of human recombinant CYP1A2 using 7-ethoxy-3-cyanocoumarin after 28 mins by fluorescence spectrophotometric analysis; format: ADME
# T1 sequence (P05177 whole entry): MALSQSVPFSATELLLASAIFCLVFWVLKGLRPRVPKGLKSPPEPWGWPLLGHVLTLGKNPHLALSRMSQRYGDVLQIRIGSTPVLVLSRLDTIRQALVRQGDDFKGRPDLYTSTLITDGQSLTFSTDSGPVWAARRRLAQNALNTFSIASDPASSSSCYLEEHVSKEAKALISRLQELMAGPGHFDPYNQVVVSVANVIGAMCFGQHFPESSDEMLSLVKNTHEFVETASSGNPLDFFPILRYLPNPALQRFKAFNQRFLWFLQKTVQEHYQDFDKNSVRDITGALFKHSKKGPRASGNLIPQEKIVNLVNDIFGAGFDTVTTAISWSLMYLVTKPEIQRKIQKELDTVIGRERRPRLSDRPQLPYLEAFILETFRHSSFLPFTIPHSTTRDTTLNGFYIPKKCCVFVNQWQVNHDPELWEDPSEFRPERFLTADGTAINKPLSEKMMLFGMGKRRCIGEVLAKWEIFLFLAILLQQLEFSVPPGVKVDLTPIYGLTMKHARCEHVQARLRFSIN
# [10] = target: T2, 5-hydroxytryptamine receptor 3A (Homo sapiens, UniProt P46098); test: Binding affinity to human 5HT3A receptor
# T2 sequence (P46098 whole entry): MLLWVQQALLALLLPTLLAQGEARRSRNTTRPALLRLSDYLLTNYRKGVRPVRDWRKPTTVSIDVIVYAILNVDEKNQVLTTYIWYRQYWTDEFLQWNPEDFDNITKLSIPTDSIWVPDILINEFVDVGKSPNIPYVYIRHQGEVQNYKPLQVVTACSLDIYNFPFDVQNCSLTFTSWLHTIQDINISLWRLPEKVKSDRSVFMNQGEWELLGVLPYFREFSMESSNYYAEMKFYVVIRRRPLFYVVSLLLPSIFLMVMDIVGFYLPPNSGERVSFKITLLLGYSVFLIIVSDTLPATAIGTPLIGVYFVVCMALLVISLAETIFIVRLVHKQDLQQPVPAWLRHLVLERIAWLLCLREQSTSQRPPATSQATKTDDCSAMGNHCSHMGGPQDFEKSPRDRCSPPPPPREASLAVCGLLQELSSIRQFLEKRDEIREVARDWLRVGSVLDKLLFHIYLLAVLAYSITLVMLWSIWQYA
# [11] = target: T3, 5-hydroxytryptamine receptor 1B (Homo sapiens, UniProt P28222); test: Partial agonist activity at human 5HT1B receptor expressed in CHO cells assessed as [35S]GTPgammaS binding; format: functional, cell-based
# T3 sequence (P28222 whole entry): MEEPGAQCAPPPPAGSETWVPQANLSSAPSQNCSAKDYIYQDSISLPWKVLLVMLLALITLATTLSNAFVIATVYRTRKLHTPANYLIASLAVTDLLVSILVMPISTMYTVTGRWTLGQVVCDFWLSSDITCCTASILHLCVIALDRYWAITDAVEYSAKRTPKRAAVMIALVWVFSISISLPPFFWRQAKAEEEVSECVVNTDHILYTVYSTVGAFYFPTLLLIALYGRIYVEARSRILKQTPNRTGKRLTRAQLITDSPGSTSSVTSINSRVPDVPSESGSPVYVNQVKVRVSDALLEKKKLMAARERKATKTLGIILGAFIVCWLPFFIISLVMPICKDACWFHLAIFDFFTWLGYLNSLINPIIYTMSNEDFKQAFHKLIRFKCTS
# [12] = target: T3, 5-hydroxytryptamine receptor 1B; test: Inhibition of human 5HT1B receptor at 1 uM
# [13] = target: T3, 5-hydroxytryptamine receptor 1B; test: Partial agonist activity at human 5HT1B receptor expressed in CHO cells assessed as [35S]GTPgammaS binding relative to 5HT
# [14] = test system: Rattus norvegicus; test: Antidepression activity in Harlan rat assessed as increase in extracellular 5HT level in ventral hippocampus region at 2.5 to 10 mg/kg, sc by microdialysis method; conditions: TDE = time-dependent effect
compound,measurement,setting,value
Cc1ccc(Sc2ccccc2N2CCNCC2)c(C)c1.Cl,Occ,[1],43%
same,Ki,[2],220 nM
same,Ki,[3],560 nM
same,Ki,[4],46 nM
same,Ki,[5],1.6 nM
same,bioavailability,[6],16%
same,IC50,[7],9800 nM
same,IC50,[8],39000 nM
same,IC50,[9],40000 nM
same,Ki,[10],3.7 nM
same,EC50,[11],120 nM
same,inhibition,[12],100%
same,Efficacy,[13],55%
same,Activity,[14],tde
